The results in this text go back to patent US20250268873A1, “COMBINATION OF DUAL ATM AND DNA-PK INHIBITORS AND IMMUNOTHERAPEUTIC AGENTS FOR USE IN CANCER THERAPY” (XRAD THERAPEUTICS, INC., priority 2021, published 2025).

The subject of this assay is DNA-PK and ATM kinases. Description: Immunoblot of radiation-induced phosphorylation in MCF7 cells. The conditions noted are these: 20, 100, 500, 1000 nM, 30 min pre-treatment, 10 Gy IR. Format: cell-based, human. The text has this:
Antibodies recognizing phosphorylated/activated ATM (S1981, #ab81292) and DNA-PKcs (S2056, #ab18192) were purchased from Abcam Biotechnology (Cambridge, MA). Antibodies to ATM (#A1106) and DNA-PKcs (#ab1832) were from Sigma and Abcam, respectively. Phospho-KAP1 (S824, #A300-767A) and KAP1 (A700-014) antibodies were from Bethyl Labs (Montgomery, TX). Phospho-TBK1 (#5483), cGAS (#15102), and pSTING (S366, #19781S) antibodies were from Cell Signaling Technology (CST) (Danvers, MA). STING (PA5-23381) antibodies were from ThermoFisher Scientific (Waltham, MA), and actin (#A5316) antibodies were from Sigma. […]
Cells were pretreated with Compound 569 at 20, 100, 500, or 1000 nM or DMSO for 30 min and then irradiated with 0 or 10 Gy (XRAD 160, Precision X Ray) as shown in FIG. 1. […] One hour after IR, cells were lysed in RIPA buffer ([…], pH 8.0, 150 mM NaCl, 0.1% SDS, 0.5% sodium deoxycholate, 1% IGEPAL® CA-630 (Sigma, 18896) for 20 min at 4° C. in the presence of protease and phosphatase inhibitor cocktails (Roche, #04693159001 & #04906837001). Cell lysates were centrifuged at 13,200 g for 10 min at 4° C. and supernatants were analyzed for protein content using BCA assay (Pierce™ BCA Protein Assay Kit, cat #23227, ThermoFisher Waltham, MA 02451) and equal amounts of protein/lane were used for subsequent immunoblot analyses. Proteins were denatured by adding NuPAGE LSD Sample Buffer [4×] […]
In general terms: A western blot detects proteins with antibodies after separation by electrophoresis.

Turning to `CC(C)NCCOc1ncc(-c2cc3c4c(cnc3cc2F)N(C)C(=O)C42CCC2)cc1NS(C)(=O)=O` [Compound 569, N-(5-(7′-Fluoro-3′-methyl-2′-oxo-2′,3′-dihydrospiro[cyclobutane-1,1′-pyrrolo[2,3-c]quinolin]-8′-yl)-2-(2-(isopropylamino)ethoxy)pyridin-3-yl)methanesulfonamide], the “inhibition of radiation-induced phosphorylation of DNA-PKcs (Ser2056), ATM (Ser1981) and KAP1 (ser824)” value is reported as “potent dose-dependent inhibition”.
